{
  "source": "PubChem BioAssay AID256",
  "about": "(DTP/NCI, 2004)",
  "system": "CD2F1 mice, L1210 leukemia ip, survival T/C",
  "assay": "NCI In Vivo Anticancer Drug Screen. Data for tumor model L1210 Leukemia (intraperitoneal) in CD2F1 (CDF1) mice",
  "details": "endpoint: mean survival time, higher = longer survival",
  "procedure,_shortened": "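Transplantable tumor in mice; compound-treated vs vehicle-treated groups. Read-out = treated/control ratio of the measured endpoint.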",
  "key": {"[1]": {"details": "dose: 100.0 mg/kg/injection, schedule: Q04DX003 (ip), vehicle: saline with Tween-80"}, "[2]": {"details": "dose: 200.0 mg/kg/injection, schedule: Q04DX003 (ip), vehicle: saline with Tween-80"}},
  "note": "Toxic doses and inconclusive results are not listed.",
  "data": [
    {"smiles": "OC1CC2CCC(C1)N2CCCN1c2ccccc2Sc2ccc(Cl)cc21", "note": "(configuration not stated)", "values": [
      {"measurement": "T/C", "setting": "dose: 7.5 mg/kg/injection, schedule: Q01DX009 (ip), vehicle: saline", "value": "91 % of control"},
      {"measurement": "T/C", "setting": "dose: 15.0 mg/kg/injection, schedule: Q01DX009 (ip), vehicle: saline", "value": "98 % of control"},
      {"measurement": "T/C", "setting": "dose: 18.0 mg/kg/injection, schedule: Q04DX003 (ip), vehicle: saline with Tween-80", "value": "99 % of control"},
      {"measurement": "T/C", "setting": "dose: 27.0 mg/kg/injection, schedule: Q04DX003 (ip), vehicle: saline with Tween-80", "value": "94 % of control"},
      {"measurement": "T/C", "setting": "dose: 30.0 mg/kg/injection, schedule: Q01DX009 (ip), vehicle: saline", "value": "109 % of control"},
      {"measurement": "T/C", "setting": "dose: 40.0 mg/kg/injection, schedule: Q04DX003 (ip), vehicle: saline with Tween-80", "value": "103 % of control"},
      {"measurement": "T/C", "setting": "dose: 60.0 mg/kg/injection, schedule: Q04DX003 (ip), vehicle: saline with Tween-80", "value": "123 % of control"}
    ]},
    {"smiles": "COC(=O)C(CC(C)C)NC(=O)c1ccccc1", "note": "(configuration not stated)", "values": [
      {"measurement": "T/C", "setting": "[1]", "value": "98 % of control"},
      {"measurement": "T/C", "setting": "[2]", "value": "97 % of control"},
      {"measurement": "T/C", "setting": "dose: 400.0 mg/kg/injection, schedule: Q04DX003 (ip), vehicle: saline with Tween-80", "value": "95 % of control"}
    ]},
    {"smiles": "Nc1ncc(C2OC(CO)C(O)C2O)c(N)n1", "note": "(configuration not stated)", "values": [
      {"measurement": "T/C", "setting": "dose: 25.0 mg/kg/injection, schedule: Q01DX009 (ip), vehicle: water", "value": "91 % of control"},
      {"measurement": "T/C", "setting": "dose: 50.0 mg/kg/injection, schedule: Q01DX009 (ip), vehicle: water", "value": "100 % of control"},
      {"measurement": "T/C", "setting": "dose: 100.0 mg/kg/injection, schedule: Q01DX009 (ip), vehicle: water", "value": "95 % of control"},
      {"measurement": "T/C", "setting": "dose: 200.0 mg/kg/injection, schedule: Q01DX009 (ip), vehicle: water", "value": "88 % of control"},
      {"measurement": "T/C", "setting": "dose: 400.0 mg/kg/injection, schedule: Q01DX009 (ip), vehicle: water", "value": "91 % of control"}
    ]},
    {"smiles": "c1ccc([P+](Cc2ccc(C[P+](c3ccccc3)(c3ccccc3)c3ccccc3)cc2)(c2ccccc2)c2ccccc2)cc1", "values": [
      {"measurement": "T/C", "setting": "dose: 0.07 mg/kg/injection, schedule: Q01DX009 (ip), vehicle: saline sonified", "value": "94 % of control"},
      {"measurement": "T/C", "setting": "dose: 0.07 mg/kg/injection, schedule: Q04DX003 (ip), vehicle: saline with Tween-80", "value": "97 % of control"},
      {"measurement": "T/C", "setting": "dose: 0.15 mg/kg/injection, schedule: Q01DX009 (ip), vehicle: saline sonified", "value": "98 % of control"},
      {"measurement": "T/C", "setting": "dose: 0.15 mg/kg/injection, schedule: Q04DX003 (ip), vehicle: saline with Tween-80", "value": "93 % of control"},
      {"measurement": "T/C", "setting": "dose: 0.3 mg/kg/injection, schedule: Q01DX009 (ip), vehicle: saline sonified", "value": "93 % of control"},
      {"measurement": "T/C", "setting": "dose: 0.3 mg/kg/injection, schedule: Q04DX003 (ip), vehicle: saline with Tween-80", "value": "93 % of control"},
      {"measurement": "T/C", "setting": "dose: 0.6 mg/kg/injection, schedule: Q01DX009 (ip), vehicle: saline sonified", "value": "96 % of control"},
      {"measurement": "T/C", "setting": "dose: 0.6 mg/kg/injection, schedule: Q04DX003 (ip), vehicle: saline with Tween-80", "value": "98 % of control"}
    ]},
    {"smiles": "CCCC(C)c1ccccc1O", "note": "(configuration not stated)", "values": [
      {"measurement": "T/C", "setting": "dose: 25.0 mg/kg/injection, schedule: Q01DX009 (ip), vehicle: saline with Tween-80", "value": "102 % of control"},
      {"measurement": "T/C", "setting": "dose: 25.0 mg/kg/injection, schedule: Q04DX003 (ip), vehicle: saline", "value": "97 % of control"},
      {"measurement": "T/C", "setting": "dose: 50.0 mg/kg/injection, schedule: Q01DX009 (ip), vehicle: saline with Tween-80", "value": "98 % of control"},
      {"measurement": "T/C", "setting": "dose: 50.0 mg/kg/injection, schedule: Q04DX003 (ip), vehicle: saline", "value": "105 % of control"},
      {"measurement": "T/C", "setting": "dose: 100.0 mg/kg/injection, schedule: Q01DX009 (ip), vehicle: saline with Tween-80", "value": "92 % of control"},
      {"measurement": "T/C", "setting": "dose: 100.0 mg/kg/injection, schedule: Q04DX003 (ip), vehicle: saline", "value": "94 % of control"}
    ]},
    {"smiles": "COc1ccc(C(=O)NNC(=O)c2ccc(OC)c(OC)c2)cc1OC", "values": [
      {"measurement": "T/C", "setting": "dose: 12.5 mg/kg/injection, schedule: Q01DX009 (ip), vehicle: other", "value": "92 % of control"},
      {"measurement": "T/C", "setting": "dose: 25.0 mg/kg/injection, schedule: Q01DX009 (ip), vehicle: other", "value": "93 % of control"},
      {"measurement": "T/C", "setting": "dose: 50.0 mg/kg/injection, schedule: Q01DX009 (ip), vehicle: other", "value": "92 % of control"},
      {"measurement": "T/C", "setting": "dose: 100.0 mg/kg/injection, schedule: Q01DX009 (ip), vehicle: other", "value": "108 % of control"},
      {"measurement": "T/C", "setting": "dose: 200.0 mg/kg/injection, schedule: Q01DX009 (ip), vehicle: other", "value": "107 % of control"}
    ]},
    {"smiles": "CN(C)N=C1CCCC1", "values": [
      {"measurement": "T/C", "setting": "dose: 50.0 mg/kg/injection, schedule: Q04DX003 (ip), vehicle: saline with Tween-80", "value": "101 % of control"},
      {"measurement": "T/C", "setting": "dose: 75.0 mg/kg/injection, schedule: Q01DX001 (ip), vehicle: saline", "value": "98 % of control"},
      {"measurement": "T/C", "setting": "[1]", "value": "95 % of control"},
      {"measurement": "T/C", "setting": "dose: 150.0 mg/kg/injection, schedule: Q01DX001 (ip), vehicle: saline", "value": "100 % of control"},
      {"measurement": "T/C", "setting": "[2]", "value": "100 % of control"}
    ]},
    {"smiles": "CC(=O)OCC1OC(n2cnc3c(=S)nc(N)[nH]c32)CC1OC(C)=O", "note": "(configuration not stated)", "values": [
      {"measurement": "T/C", "setting": "dose: 0.63 mg/kg/injection, schedule: Q01DX005 (ip), vehicle: saline with Tween-80", "value": "101 % of control"},
      {"measurement": "T/C", "setting": "dose: 1.25 mg/kg/injection, schedule: Q01DX005 (ip), vehicle: saline with Tween-80", "value": "117 % of control"},
      {"measurement": "T/C", "setting": "dose: 20.0 mg/kg/injection, schedule: Q01DX005 (ip), vehicle: saline with Tween-80", "value": "156 % of control"}
    ]}
  ]
}
